{"source": "patent US10087229B2", "about": "“Peptide compound” (TAKEDA PHARMACEUTICAL COMPANY LIMITED, priority 2013, dated 2018)", "system": "male C57BL/6J mouse", "assay": "2-days continuous subcutaneous administration test (feeding suppressive activity)", "assay_type": "in vivo", "conditions": "10 nmol/kg/day, subcutaneous Alzet pump, 2-days cumulative food consumption, control (solvent alone) = 0%", "procedure": "2-Days Continuous Subcutaneous Administration Test\nThe feeding suppressive activity of a test compound was examined by the method described below.\nThe test compound was dissolved in a solvent (50% DMSO) so that sustained release would occur at 10 nmol/kg/day, and the solution was filled in the Alzet Pump (DURECT Corporation, model: 1003D). The pump thus filled with the solution to be administered was immersed in physiological saline for priming, and then used. The pump was embedded by the following method. Each male C57BL/6J mouse at 8-9 weeks of age (20-26° C., allowed to take food and water ad libitum; 12-hour bright-12-hour dark cycle) was anesthetized; the skin in the upper back thereof was incised, and the above-mentioned pump was embedded subcutaneously; the incision was sutured. After weighing, this mouse was returned to the rearing cage (reared alone), and given previously weighed food; food consumption as of 2 days after the start of administration was measured. The food consumption was calculated by subtracting the amount of remaining food from the weight of the food given on the day of the start of administration. When the food consumption of a control group receiving administration of the solvent alone was regarded as a suppression rate of 0%, the feeding suppressive activity of each test compound was evaluated on the basis of 2-days cumulative food consumption after the start of administration. The food intake suppression rate (%) of the test compound was defined as (Food consumption of the control group−Food consumption of the test compound-administered group)/Food consumption of the control group×100.", "note": "Square brackets hold non-standard residues; d marks the D form. Peptide text beside a SMILES is read from it. * marks the point of attachment. αMeF = C[C@](N)(Cc1ccccc1)C(=O)O; 4Pal = N[C@@H](Cc1ccncc1)C(=O)O; Cha = N[C@@H](CC1CCCCC1)C(=O)O; Aib = CC(C)(N)C(=O)O; Bz = O=C(c1ccccc1)*", "data": [{"compound": "CC[C@H](C)[C@H](NC(=O)C(C)(C)NC(=O)[C@H](Cc1ccc(O)cc1)NC(=O)[C@H](CC(=O)O)NC(=O)[C@H](CO)NC(=O)[C@@H](NC(=O)[C@](C)(Cc1ccccc1)NC(=O)[C@@H](NC(=O)CNC(=O)[C@H](CCC(=O)O)NC(=O)C(C)(C)NC(=O)[C@H](Cc1ccc(O)cc1)NC(=O)c1ccccc1)[C@@H](C)O)[C@@H](C)O)C(=O)NC(C)(C)C(=O)N[C@@H](CC(C)C)C(=O)N[C@@H](CC(=O)O)C(=O)N[C@@H](CCCCN)C(=O)N[C@@H](CCC(N)=O)C(=O)N[C@@H](C)C(=O)N[C@@H](CCC(N)=O)C(=O)N[C@@H](C)C(=O)N[C@@H](CCC(=O)O)C(=O)N[C@@H](Cc1ccccc1)C(=O)N[C@H](C(=O)N[C@@H](CCCCN)C(=O)N[C@@H](Cc1c[nH]c2ccccc12)C(=O)N[C@@H](CC(C)C)C(=O)N[C@@H](CC(C)C)C(=O)N[C@@H](CCCCN)C(=O)NCC(=O)NCC(=O)N1CCC[C@H]1C(=O)N[C@@H](CO)C(=O)N[C@@H](CO)C(=O)NCC(=O)N[C@@H](C)C(=O)N1CCC[C@H]1C(=O)N1CCC[C@H]1C(=O)N1CCC[C@H]1C(=O)N[C@@H](CO)C(=O)N[C@@H](CCCCN)C(N)=O)C(C)C", "note": "[Example 19] (Bz-Y[Aib]EGT[αMeF]TSDY[Aib]I[Aib]LDKQAQAEFVKWLLKGGPSSGAPPPSK-NH2)", "values": [{"measurement": "Food intake suppression (%)", "result": 34.79, "unit": "%"}]}, {"compound": "CC[C@H](C)[C@H](NC(=O)C(C)(C)NC(=O)[C@H](Cc1ccc(O)cc1)NC(=O)[C@H](CC(=O)O)NC(=O)[C@H](CO)NC(=O)[C@@H](NC(=O)[C@](C)(Cc1ccccc1)NC(=O)[C@@H](NC(=O)CNC(=O)[C@H](CCC(=O)O)NC(=O)C(C)(C)NC(=O)[C@@H](N)Cc1ccc(O)cc1)[C@@H](C)O)[C@@H](C)O)C(=O)N[C@@](C)(Cc1ccccc1)C(=O)N[C@@H](CC(C)C)C(=O)N[C@@H](CC(=O)O)C(=O)N[C@@H](CCCCN)C(=O)N[C@@H](CCC(N)=O)C(=O)N[C@@H](C)C(=O)N[C@@H](CCC(N)=O)C(=O)N[C@@H](C)C(=O)N[C@@H](CCC(=O)O)C(=O)N[C@@H](Cc1ccccc1)C(=O)N[C@H](C(=O)N[C@@H](CCCCN)C(=O)N[C@@H](Cc1c[nH]c2ccccc12)C(=O)N[C@@H](CC(C)C)C(=O)N[C@@H](CC(C)C)C(=O)N[C@@H](CCCCN)C(=O)NCC(=O)NCC(=O)N1CCC[C@H]1C(=O)N[C@@H](CO)C(=O)N[C@@H](CO)C(=O)NCC(=O)N[C@@H](C)C(=O)N1CCC[C@H]1C(=O)N1CCC[C@H]1C(=O)N1CCC[C@H]1C(=O)N[C@@H](CO)C(=O)N[C@@H](CCCCN)C(N)=O)C(C)C", "note": "[Example 13] (H-Y[Aib]EGT[αMeF]TSDY[Aib]I[αMeF]LDKQAQAEFVKWLLKGGPSSGAPPPSK-NH2)", "values": [{"measurement": "Food intake suppression (%)", "result": 57.12, "unit": "%"}]}, {"compound": "CC[C@H](C)[C@H](NC(=O)[C@H](C)NC(=O)[C@H](Cc1ccc(O)cc1)NC(=O)[C@H](CC(=O)O)NC(=O)[C@H](CO)NC(=O)[C@@H](NC(=O)[C@](C)(Cc1ccccc1)NC(=O)[C@@H](NC(=O)CNC(=O)[C@H](CCC(=O)O)NC(=O)C(C)(C)NC(=O)[C@@H](N)Cc1ccc(O)cc1)[C@@H](C)O)[C@@H](C)O)C(=O)NC(C)(C)C(=O)N[C@@H](CC(C)C)C(=O)N[C@@H](CC(=O)O)C(=O)N[C@@H](CCCCN)C(=O)N[C@@H](CCC(N)=O)C(=O)N[C@@H](C)C(=O)N[C@@H](CCC(N)=O)C(=O)N[C@@H](C)C(=O)N[C@@H](CCC(=O)O)C(=O)N[C@@H](Cc1ccccc1)C(=O)N[C@H](C(=O)N[C@@H](CCCCN)C(=O)N[C@@H](Cc1c[nH]c2ccccc12)C(=O)N[C@@H](CC(C)C)C(=O)N[C@@H](CC(C)C)C(=O)N[C@@H](CCCCN)C(=O)NCC(=O)NCC(=O)N1CCC[C@H]1C(=O)N[C@@H](CO)C(=O)N[C@@H](CO)C(=O)NCC(=O)N[C@@H](C)C(=O)N1CCC[C@H]1C(=O)N1CCC[C@H]1C(=O)N1CCC[C@H]1C(=O)N[C@@H](CO)C(N)=O)C(C)C", "note": "[Example 5] (H-Y[Aib]EGT[αMeF]TSDYAI[Aib]LDKQAQAEFVKWLLKGGPSSGAPPPS-NH2)", "values": [{"measurement": "Food intake suppression (%)", "result": 60.99, "unit": "%"}]}, {"compound": "CC(C)C[C@H](NC(=O)[C@H](CC(C)C)NC(=O)[C@H](Cc1c[nH]c2ccccc12)NC(=O)[C@H](CCCCN)NC(=O)[C@@H](NC(=O)[C@H](Cc1ccccc1)NC(=O)[C@H](CCC(=O)O)NC(=O)[C@H](C)NC(=O)[C@H](CCC(N)=O)NC(=O)[C@H](C)NC(=O)[C@H](CCC(N)=O)NC(=O)[C@H](CCCCN)NC(=O)[C@H](CC(=O)O)NC(=O)[C@H](CC(C)C)NC(=O)[C@](C)(Cc1ccccc1)NC(=O)[C@H](CCCCN)NC(=O)C(C)(C)NC(=O)[C@H](Cc1ccc(O)cc1)NC(=O)[C@H](CC(=O)O)NC(=O)[C@H](CO)NC(=O)[C@@H](NC(=O)[C@](C)(Cc1ccccc1)NC(=O)[C@@H](NC(=O)CNC(=O)[C@H](CCC(=O)O)NC(=O)C(C)(C)NC(=O)[C@@H](N)Cc1ccc(O)cc1)[C@@H](C)O)[C@@H](C)O)C(C)C)C(=O)N[C@@H](CCCCN)C(=O)NCC(=O)NCC(=O)N1CCC[C@H]1C(=O)N[C@@H](CO)C(=O)N[C@@H](CO)C(=O)NCC(=O)N[C@@H](C)C(=O)N1CCC[C@H]1C(=O)N1CCC[C@H]1C(=O)N1CCC[C@H]1C(=O)N[C@@H](CO)C(=O)N[C@@H](CCCCN)C(N)=O", "note": "[Example 15] (H-Y[Aib]EGT[αMeF]TSDY[Aib]K[αMeF]LDKQAQAEFVKWLLKGGPSSGAPPPSK-NH2)", "values": [{"measurement": "Food intake suppression (%)", "result": 58.80, "unit": "%"}]}, {"compound": "CC[C@H](C)[C@H](NC(=O)C(C)(C)NC(=O)[C@H](Cc1ccc(O)cc1)NC(=O)[C@H](CC(=O)O)NC(=O)[C@H](CO)NC(=O)[C@@H](NC(=O)[C@](C)(Cc1ccccc1)NC(=O)[C@@H](NC(=O)CNC(=O)[C@H](CCC(=O)O)NC(=O)C(C)(C)NC(=O)[C@@H](N)Cc1ccc(O)cc1)[C@@H](C)O)[C@@H](C)O)C(=O)N[C@@H](CC1CCCCC1)C(=O)N[C@@H](CC(C)C)C(=O)N[C@@H](CC(=O)O)C(=O)N[C@@H](CCCCN)C(=O)N[C@@H](CCC(N)=O)C(=O)N[C@@H](C)C(=O)N[C@@H](CCC(N)=O)C(=O)N[C@@H](C)C(=O)N[C@@H](CCC(=O)O)C(=O)N[C@@H](Cc1ccccc1)C(=O)N[C@H](C(=O)N[C@@H](CCCCN)C(=O)N[C@@H](Cc1c[nH]c2ccccc12)C(=O)N[C@@H](CC(C)C)C(=O)N[C@@H](CC(C)C)C(=O)N[C@@H](CCCCN)C(=O)NCC(=O)NCC(=O)N1CCC[C@H]1C(=O)N[C@@H](CO)C(=O)N[C@@H](CO)C(=O)NCC(=O)N[C@@H](C)C(=O)N1CCC[C@H]1C(=O)N1CCC[C@H]1C(=O)N1CCC[C@H]1C(=O)N[C@@H](CO)C(=O)N[C@@H](CCCCN)C(N)=O)C(C)C", "note": "[Example 14] (H-Y[Aib]EGT[αMeF]TSDY[Aib]I[Cha]LDKQAQAEFVKWLLKGGPSSGAPPPSK-NH2)", "values": [{"measurement": "Food intake suppression (%)", "result": 47.47, "unit": "%"}]}, {"compound": "CC(C)C[C@H](NC(=O)[C@H](CC(C)C)NC(=O)[C@H](Cc1c[nH]c2ccccc12)NC(=O)[C@H](CCCCN)NC(=O)[C@@H](NC(=O)[C@H](Cc1ccccc1)NC(=O)[C@H](CCC(=O)O)NC(=O)[C@H](C)NC(=O)[C@H](CCC(N)=O)NC(=O)[C@H](C)NC(=O)[C@H](CCC(N)=O)NC(=O)[C@H](CCCCN)NC(=O)[C@H](CC(=O)O)NC(=O)[C@H](CC(C)C)NC(=O)C(C)(C)NC(=O)[C@H](Cc1ccncc1)NC(=O)C(C)(C)NC(=O)[C@H](Cc1ccc(O)cc1)NC(=O)[C@H](CC(=O)O)NC(=O)[C@H](CO)NC(=O)[C@@H](NC(=O)[C@](C)(Cc1ccccc1)NC(=O)[C@@H](NC(=O)CNC(=O)[C@H](CCC(=O)O)NC(=O)C(C)(C)NC(=O)[C@@H](N)Cc1ccc(O)cc1)[C@@H](C)O)[C@@H](C)O)C(C)C)C(=O)N[C@@H](CCCCN)C(=O)NCC(=O)NCC(=O)N1CCC[C@H]1C(=O)N[C@@H](CO)C(=O)N[C@@H](CO)C(=O)NCC(=O)N[C@@H](C)C(=O)N1CCC[C@H]1C(=O)N1CCC[C@H]1C(=O)N1CCC[C@H]1C(=O)N[C@@H](CO)C(=O)N[C@@H](CCCCN)C(N)=O", "note": "[Example 12] (H-Y[Aib]EGT[αMeF]TSDY[Aib][4Pal][Aib]LDKQAQAEFVKWLLKGGPSSGAPPPSK-NH2)", "values": [{"measurement": "Food intake suppression (%)", "result": 55.07, "unit": "%"}]}, {"compound": "CC[C@H](C)[C@H](NC(=O)[C@H](C)NC(=O)[C@H](Cc1ccc(O)cc1)NC(=O)[C@H](CC(=O)O)NC(=O)[C@H](CO)NC(=O)[C@@H](NC(=O)[C@](C)(Cc1ccccc1)NC(=O)[C@@H](NC(=O)CNC(=O)[C@H](CCC(=O)O)NC(=O)C(C)(C)NC(=O)[C@@H](N)Cc1ccc(O)cc1)[C@@H](C)O)[C@@H](C)O)C(=O)NC(C)(C)C(=O)N[C@@H](CC(C)C)C(=O)N[C@@H](CC(=O)O)C(=O)N[C@@H](CCCCN)C(=O)N[C@@H](CCC(N)=O)C(=O)N[C@@H](C)C(=O)N[C@@H](CCC(N)=O)C(=O)N[C@@H](CO)C(=O)N[C@@H](CCC(=O)O)C(=O)N[C@@H](Cc1ccccc1)C(=O)N[C@H](C(=O)N[C@@H](CCCCN)C(=O)N[C@@H](Cc1c[nH]c2ccccc12)C(=O)N[C@@H](CC(C)C)C(=O)N[C@@H](CC(C)C)C(=O)N[C@@H](CCCCN)C(=O)NCC(=O)NCC(=O)N1CCC[C@H]1C(=O)N[C@@H](CO)C(=O)N[C@@H](CO)C(=O)NCC(=O)N[C@@H](C)C(=O)N1CCC[C@H]1C(=O)N1CCC[C@H]1C(=O)N1CCC[C@H]1C(=O)N[C@@H](CO)C(=O)N[C@@H](CCCCN)C(N)=O)C(C)C", "note": "[Example 3] (H-Y[Aib]EGT[αMeF]TSDYAI[Aib]LDKQAQSEFVKWLLKGGPSSGAPPPSK-NH2)", "values": [{"measurement": "Food intake suppression (%)", "result": 46.49, "unit": "%"}]}]}
